# Source: patent US20220241176A1, “METHOD FOR LOADING OF MICROORGANISMS ON MULTIPHASE BIOMATERIALS” (priority 2019, published 2022)
# Experiments:
# S. aureus [1] = test: Agar well diffusion test against S. aureus (without BNC); format: cell-based, Staphylococcus aureus
# Procedure: For the agar diffusion test the OD600 of B. megaterium and B. subtilis was adjusted to 0.1 McFarland using sterilized saline NaCl 0.9%. The OD600 of S. aureus was adjusted to 0.5 McFarland using sterilized saline NaCl 0.9%. 20 μl of S. aureus was spread on the surface of Mueller-Hinton agar plate by a sterilized glass spreader. The wells are […] on the agar plate using the back side of a 1 ml pipette tip. A small volume of Mueller-Hinton agar was melted in boiling water bath, then 100 μl of it was used to close the bottom of each created well. After solidification of the agar in the bottom of the wells, the wells were filled with 100 μl of: Negative control, sterilized saline NaCl 0.9%, Positive control, gentamicin 300 μg/ml, B. megaterium or B. subtilis-free supernatant, B. megaterium or B. subtilis suspension.
# S. aureus [2] = test: Agar diffusion test of loaded BNC fleeces against S. aureus; format: cell-based, Staphylococcus aureus
# Procedure: The evaluation of the antibacterial activity of B. subtilis and B. megaterium loaded—BNC against gram-positive S. aureus was determined by an agar diffusion test. Therefore, the bacterial suspensions of B. subtilis and S. aureus were prepared in TSB broth medium as described before. […] 3 BNC fleeces were loaded using B. subtilis suspension in TSB medium, and 3 BNC fleeces were loaded using B. subtilis suspension in saline. Further 3 BNC fleeces were loaded using the B. subtilis free-supernatant, 3 BNC fleeces were loaded with gentamycin as positive control, and 3 BNC fleeces with isotonic saline as negative control. The OD600 of S. aureus was adjusted to 0.5 McFarland using sterilized saline NaCl 0.9% and the optical density spectrophotometer (Biophotometer) was determined. 20 μl of S. aureus was spread on the surface of Mueller-Hinton agar plate by a sterilized glass spreader. The last control and loaded BNC fleeces were added onto surface of the Mueller Hinton agar: 1. Negative control: saline-loaded BNC 2. Positive control: gentamicin-loaded BNC 3. B. subtilis-loaded BNC in TSB medium 4. B. subtilis-loaded BNC in saline 5. B. subtilis-free supernatant-loaded BNC.
substance,measurement,setting,value
gentamicin [Gentamycin],inhibition zone (in words),"S. aureus [1]; agar well diffusion, 100 μl per well, 37° C., 24 h",inhibition zone
same,"inhibition effect on S. aureus, Without BNC",S. aureus [1]; diffusion test,+ (by detection of inhibition zone > 2 mm)
same,"inhibition effect on S. aureus, on BNC - injection technique",S. aureus [2],+ (by detection of inhibition zone > 2 mm)
same,"inhibition effect on S. aureus, on BNC - spray technique",S. aureus [2],+ (by detection of inhibition zone > 2 mm)
same,"inhibition effect on S. aureus, on BNC - vortex technique",S. aureus [2],+ (by detection of inhibition zone > 2 mm)
